From patent US8329645B2, “Polymyxin derivatives and uses thereof” (priority 2008, dated 2012)

Experiments:
[1] = system: A. baumannii ATCC19606; test: E-test MIC of antibiotics on Mueller Hinton agar containing increasing concentrations of NAB739; assay type: cell-based, Acinetobacter baumannii
[2] = system: S. marcescens ATCC8100; test: E-test MIC with or without NAB7061 (4 μg/ml), Mueller-Hinton agar; assay type: cell-based, Serratia marcescens
Method: (§1) MICs were determined by using E-strips (Biodisk Ltd., Solna, Sweden) according to the manufacturer's instructions.
(§2) The strains originated from ATCC (11 strains), CCUG (11 strains), and NCTC (The National Collection of Type Cultures, Colindale, U.K.; 2 strains). Eight strains (the F-strains) were purchased from Mobidiag Ltd., Helsinki, Finland.

[3] = system: P. aeruginosa ATCC 27853; test: E-test MIC of antibiotics on Mueller Hinton agar containing increasing concentrations of NAB739; assay type: cell-based, Pseudomonas aeruginosa
[4] = system: E. cloacae ATCC23355; test: E-test MIC with or without NAB7061 (4 μg/ml), Mueller-Hinton agar; assay type: cell-based, Enterobacter cloacae
In short: (§3)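 Gradient-strip (E-strip) method, performed per manufacturer's protocol; MIC read where growth inhibition met the strip.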

[5] = system: E. cloacae F230; test: as above; assay type: cell-based, Enterobacter cloacae
In short: as §3

[6] = system: E. cloacae F232; test: as above; assay type: cell-based, Enterobacter cloacae
In short: as §3

[7] = system: E. cloacae CCUG52947; test: as above; assay type: cell-based, Enterobacter cloacae
In short: as §3

[8] = system: C. freundii ATCC8090; test: as above; assay type: cell-based, Citrobacter freundii
Method: as §1, §2

[9] = system: E. coli ATCC25922; conditions: E. coli ATCC25922
In short: as §3

[10] = system: K. pneumoniae ATCC13883; conditions: K. pneumoniae ATCC13883
In short: as §3

[11] = system: E. coli IH3080; test: Sensitization to rifampin: growth inhibition around wells on LB plates containing rifampin; assay type: cell-based, Escherichia coli; conditions: in the absence of the compounds tested
[12] = system: K. pneumoniae F136; test: E-test MIC with or without NAB7061 (4 μg/ml), Mueller-Hinton agar; assay type: cell-based, Klebsiella pneumoniae
Method: as §1, §2

[13] = system: K. pneumoniae F144; test: as above; assay type: cell-based, Klebsiella pneumoniae
Method: as §1, §2

[14] = system: K. pneumoniae F145; test: as above; assay type: cell-based, Klebsiella pneumoniae
Method: as §1, §2

[15] = system: K. pneumoniae CCUG45421; test: as above; assay type: cell-based, Klebsiella pneumoniae
Method: as §1, §2

[16] = system: both Acinetobacter strains (ATCC 19606 and F264); test: E-test sensitization by NAB739, both strains; assay type: cell-based, Acinetobacter baumannii
[17] = system: P. mirabilis ATCC29906; test: E-test MIC with or without NAB7061 (4 μg/ml), Mueller-Hinton agar; assay type: cell-based, Proteus mirabilis
Method: as §1, §2

[18] = system: A. baumannii F264; test: E-test MIC of antibiotics on Mueller Hinton agar containing increasing concentrations of NAB739; assay type: cell-based, Acinetobacter baumannii; conditions: NAB 739 0 μg/ml

`CO[C@H]1/C=C/O[C@@]2(C)Oc3c(C)c(O)c4c(O)c(c(/C=N/N5CCN(C)CC5)c(O)c4c3C2=O)NC(=O)/C(C)=C\C=C\[C@H](C)[C@H](O)[C@@H](C)[C@@H](O)[C@@H](C)[C@H](OC(C)=O)[C@@H]1C` [Rifampin] was tested, and the “MIC of antibiotic in the presence of NAB739” value (from here on “MIC of antibiotic … of NAB739”) ([1]; NAB 739 0 μg/ml) was 4 µg/mL, the “MIC of antibiotic … of NAB739” value ([1]; NAB 739 0.5 μg/ml) was 0.047 µg/mL and the “MIC of antibiotic … of NAB739” value ([1]; NAB 739 1 μg/ml) was 0.006 µg/mL. The “MIC of antibiotic in the presence of 4 μg/ml of NAB 7061” value (“MIC of antibiotic … of NAB 7061” below) [2] was 16 µg/mL, the “Sensitization factor to antibiotic (MIC without / with 4 μg/ml of NAB 7061)” value [2] was under 2 and the “MIC of antibiotic … of NAB739” value ([3]; NAB 739 0 μg/ml) was 32 µg/mL. The “MIC of antibiotic … of NAB739” value ([3]; NAB 739 0.5 μg/ml) was 32 µg/mL, the “MIC of antibiotic … of NAB739” value ([3]; NAB 739 1 μg/ml) was 16 µg/mL and the “MIC of antibiotic … of NAB739” value ([3]; NAB 739 2 μg/ml) was 4 µg/mL. For the same molecule, the “MIC of antibiotic … of NAB739” value ([3]; NAB 739 […]) was 32 µg/mL, the “MIC of antibiotic … of NAB 7061” value [4] was 0.008 to 0.016 µg/mL and the “Sensitization factor to antibiotic (MIC without / with 4 μg/ml of NAB 7061)” value [4] was 750-1500. The “MIC of antibiotic … of NAB 7061” value [5] was 0.016 to 0.032 µg/mL, the “Sensitization factor to antibiotic (MIC without / with 4 μg/ml of NAB 7061)” value [5] was 1500 and the “MIC of antibiotic … of NAB 7061” value [6] was 0.023 µg/mL. The “Sensitization factor to antibiotic (MIC without / with 4 μg/ml of NAB 7061)” value [6] was 1400, the “MIC of antibiotic … of NAB 7061” value [7] was 0.032 to 0.047 µg/mL and the “Sensitization factor to antibiotic (MIC without / with 4 μg/ml of NAB 7061)” value [7] was 500-1000. For the same molecule, the “MIC of antibiotic … of NAB 7061” value [8] was 0.023 to 0.032 µg/mL, the “Sensitization factor to antibiotic (MIC without / with 4 μg/ml of NAB 7061)” value [8] was 500-1000 and the “MIC of antibiotic … of NAB 7061” value [9] was 0.016 to 0.047 µg/mL. For the same molecule, the “Sensitization factor to antibiotic (MIC without / with 4 μg/ml of NAB 7061)” value [9] was 250-750, the “Sensitization factor to antibiotic (MIC without / with 4 μg/ml of NAB 7061)” value [10] was 250-500 and the “concentration of rifampin needed for the inhibitory effect” value [11] was 10 µg/mL. The “MIC of antibiotic … of NAB 7061” value [12] was 0.75 µg/mL, the “Sensitization factor to antibiotic (MIC without / with 4 μg/ml of NAB 7061)” value [12] was over 43 and the “MIC of antibiotic … of NAB 7061” value [13] was 0.19 µg/mL. For the same molecule, the “Sensitization factor to antibiotic (MIC without / with 4 μg/ml of NAB 7061)” value [13] was over 170, the “MIC of antibiotic … of NAB 7061” value [14] was 0.19 to 0.25 µg/mL and the “Sensitization factor to antibiotic (MIC without / with 4 μg/ml of NAB 7061)” value [14] was 170. For the same molecule, the “MIC of antibiotic … of NAB 7061” value [15] was 2 to 3 µg/mL, the “Sensitization factor to antibiotic (MIC without / with 4 μg/ml of NAB 7061)” value [15] was 10-20 and the “sensitization factors to antibiotic at NAB739 0.5 μg/ml” value [16] was 85-128. For the same molecule, the “MIC of antibiotic … of NAB 7061” value [17] was 1 to 6 µg/mL, the “Sensitization factor to antibiotic (MIC without / with 4 μg/ml of NAB 7061)” value [17] was under 2 and the “MIC of antibiotic … of NAB739” value [18] was 12 µg/mL.
